The supplement of paper PMC10307832

What was measured:
Assay in all cases: relative viability (nuclei count vs DMSO), 5 days (fraction); higher = more cells survive
[1] = system: COR-L 105
Outline: (§1)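 Lung cancer cell lines in 1536-well plates got either a single drug or a fixed anchor-drug dose together with five library-drug doses (not always all listed) in √10 steps, by pin tool, on the day after seeding. Nuclei were counted after 5 days, and relative viability is the treated-to-vehicle ratio of nuclei counts. Values are medians of duplicate plates.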

[2] = system: COR-L23
Outline: as §1

[3] = system: HARA
Outline: as §1

[4] = system: HCC-15
Outline: as §1

[5] = system: HOP-62
Outline: as §1

[6] = system: NCI-H1355
Outline: as §1

[7] = system: NCI-H1395
Outline: as §1

[8] = system: NCI-H1734
Outline: as §1

[9] = system: NCI-H1755
Outline: as §1

[10] = system: NCI-H1792
Outline: as §1

[11] = system: NCI-H1793
Outline: as §1

[12] = system: NCI-H1993
Outline: as §1

[13] = system: NCI-H2009
Outline: as §1

[14] = system: NCI-H2170
Outline: as §1

[15] = system: NCI-H2228
Outline: as §1

[16] = system: NCI-H2347
Outline: as §1

[17] = system: NCI-H358
Outline: as §1

[18] = system: NCI-H522
Outline: as §1

[19] = system: NCI-H647
Outline: as §1

[20] = system: NCI-H838
Outline: as §1

[21] = system: SK-MES-1
Outline: as §1

[22] = system: UMC-11
Outline: as §1

O=c1cc(-c2cccc3c2Sc2ccccc2S3)oc(N2CCOCC2)c1 + CC(=O)Nc1cccc(-n2c(=O)n(C3CC3)c(=O)c3c(Nc4ccc(I)cc4F)n(C)c(=O)c(C)c32)c1 [Trametinib] (partner 0.02 µM)
relative viability ([1]; first compound 0.08 µM): 0.397
relative viability ([1]; first compound 0.253 µM): 0.359
relative viability ([1]; first compound 0.8 µM): 0.383
relative viability ([1]; first compound 2.53 µM): 0.434
relative viability ([1]; first compound 8 µM): 0.461
relative viability ([2]; first compound 0.08 µM): 0.593
relative viability ([2]; first compound 0.253 µM): 0.689
relative viability ([2]; first compound 0.8 µM): 0.51
relative viability ([2]; first compound 2.53 µM): 0.592
relative viability ([2]; first compound 8 µM): 0.689
relative viability ([3]; first compound 0.08 µM): 0.786
relative viability ([3]; first compound 0.253 µM): 0.615
relative viability ([3]; first compound 0.8 µM): 0.537
relative viability ([3]; first compound 2.53 µM): 0.668
relative viability ([3]; first compound 8 µM): 0.581
relative viability ([4]; first compound 0.08 µM): 0.362
relative viability ([4]; first compound 0.253 µM): 0.454
relative viability ([4]; first compound 0.8 µM): 0.369
relative viability ([4]; first compound 2.53 µM): 0.363
relative viability ([4]; first compound 8 µM): 0.38
relative viability ([5]; first compound 0.08 µM): 0.401
relative viability ([5]; first compound 0.253 µM): 0.394
relative viability ([5]; first compound 0.8 µM): 0.348
relative viability ([5]; first compound 2.53 µM): 0.319
relative viability ([5]; first compound 8 µM): 0.321
relative viability ([6]; first compound 0.08 µM): 0.524
relative viability ([6]; first compound 0.253 µM): 0.468
relative viability ([6]; first compound 0.8 µM): 0.348
relative viability ([6]; first compound 2.53 µM): 0.409
relative viability ([6]; first compound 8 µM): 0.352
relative viability ([7]; first compound 0.08 µM): 0.883
relative viability ([7]; first compound 0.253 µM): 1.05
relative viability ([7]; first compound 0.8 µM): 1.14
relative viability ([7]; first compound 2.53 µM): 0.964
relative viability ([7]; first compound 8 µM): 1.06
relative viability ([8]; first compound 0.08 µM): 0.656
relative viability ([8]; first compound 0.253 µM): 0.72
relative viability ([8]; first compound 0.8 µM): 0.69
relative viability ([8]; first compound 8 µM): 0.697
relative viability ([9]; first compound 0.08 µM): 0.739
relative viability ([9]; first compound 0.253 µM): 0.867
relative viability ([9]; first compound 0.8 µM): 0.732
relative viability ([9]; first compound 2.53 µM): 0.789
relative viability ([9]; first compound 8 µM): 0.787
relative viability ([10]; first compound 0.08 µM): 0.446
relative viability ([10]; first compound 0.253 µM): 0.685
relative viability ([10]; first compound 0.8 µM): 0.441
relative viability ([10]; first compound 2.53 µM): 0.421
relative viability ([10]; first compound 8 µM): 0.38
relative viability ([11]; first compound 0.08 µM): 0.262
relative viability ([11]; first compound 0.253 µM): 0.458
relative viability ([11]; first compound 0.8 µM): 0.448
relative viability ([11]; first compound 2.53 µM): 0.376
relative viability ([11]; first compound 8 µM): 0.346
relative viability ([12]; first compound 0.08 µM): 0.462
relative viability ([12]; first compound 0.253 µM): 0.64
relative viability ([12]; first compound 0.8 µM): 0.46
relative viability ([12]; first compound 2.53 µM): 0.467
relative viability ([12]; first compound 8 µM): 0.544
relative viability ([13]; first compound 0.08 µM): 0.257
relative viability ([13]; first compound 0.253 µM): 0.236
relative viability ([13]; first compound 0.8 µM): 0.24
relative viability ([13]; first compound 2.53 µM): 0.213
relative viability ([13]; first compound 8 µM): 0.208
relative viability ([14]; first compound 0.08 µM): 0.996
relative viability ([14]; first compound 0.253 µM): 1.08
relative viability ([14]; first compound 0.8 µM): 1.06
relative viability ([14]; first compound 2.53 µM): 0.816
relative viability ([14]; first compound 8 µM): 1.01
relative viability ([15]; first compound 0.08 µM): 0.554
relative viability ([15]; first compound 0.253 µM): 0.72
relative viability ([15]; first compound 0.8 µM): 0.582
relative viability ([15]; first compound 2.53 µM): 0.416
relative viability ([15]; first compound 8 µM): 0.447
relative viability ([16]; first compound 0.08 µM): 0.283
relative viability ([16]; first compound 0.253 µM): 0.266
relative viability ([16]; first compound 0.8 µM): 0.264
relative viability ([16]; first compound 2.53 µM): 0.27
relative viability ([16]; first compound 8 µM): 0.295
relative viability ([17]; first compound 0.08 µM): 0.123
relative viability ([17]; first compound 0.253 µM): 0.134
relative viability ([17]; first compound 0.8 µM): 0.123
relative viability ([17]; first compound 2.53 µM): 0.111
relative viability ([17]; first compound 8 µM): 0.152
relative viability ([18]; first compound 0.08 µM): 0.725
relative viability ([18]; first compound 0.253 µM): 0.988
relative viability ([18]; first compound 0.8 µM): 0.724
relative viability ([18]; first compound 2.53 µM): 0.815
relative viability ([18]; first compound 8 µM): 0.734
relative viability ([19]; first compound 0.08 µM): 0.452
relative viability ([19]; first compound 0.253 µM): 0.543
relative viability ([19]; first compound 0.8 µM): 0.405
relative viability ([19]; first compound 2.53 µM): 0.376
relative viability ([19]; first compound 8 µM): 0.418
relative viability ([20]; first compound 0.08 µM): 0.462
relative viability ([20]; first compound 0.253 µM): 0.673
relative viability ([20]; first compound 0.8 µM): 0.49
relative viability ([20]; first compound 2.53 µM): 0.502
relative viability ([20]; first compound 8 µM): 0.47
relative viability ([21]; first compound 0.08 µM): 0.543
relative viability ([21]; first compound 0.253 µM): 0.579
relative viability ([21]; first compound 0.8 µM): 0.448
relative viability ([21]; first compound 2.53 µM): 0.481
relative viability ([21]; first compound 8 µM): 0.379
relative viability ([22]; first compound 0.08 µM): 0.719
relative viability ([22]; first compound 0.253 µM): 0.827
relative viability ([22]; first compound 0.8 µM): 0.78
relative viability ([22]; first compound 2.53 µM): 0.638
relative viability ([22]; first compound 8 µM): 1.03
